Paper PMC3493512, “Structures of SHV-1 β-Lactamase with Penem and Penam Sulfone Inhibitors That Form Cyclic Intermediates Stabilized by Carbonyl Conjugation” (PLoS ONE, 2012)

Target: T1, SHV-1 β-lactamase (Klebsiella pneumoniae, UniProt P0AD64)
T1 construct: gene bla
Experiment: X-ray crystal structure at […] Å (soak); Ki by direct competition kinetics
Format: biochemical

T1 sequence (P0AD64 22-286): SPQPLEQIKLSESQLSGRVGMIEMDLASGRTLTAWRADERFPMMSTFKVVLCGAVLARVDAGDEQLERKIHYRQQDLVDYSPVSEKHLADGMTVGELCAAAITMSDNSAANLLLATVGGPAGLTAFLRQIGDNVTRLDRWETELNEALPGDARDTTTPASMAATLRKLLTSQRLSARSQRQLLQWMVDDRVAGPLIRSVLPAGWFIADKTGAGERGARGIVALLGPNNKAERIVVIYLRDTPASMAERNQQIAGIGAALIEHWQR

C[C@]1(COC(=O)Cc2ccccc2)[C@H](C(=O)O)N2C(=O)/C(=C/c3ccccn3)[C@H]2S1(=O)=O [SA1-204]
Ki: 0.042 ± 0.004 µM
